Test results published in patent US20030129190A1, “FX activity in cells in cancer, inflammatory responses and diseases and in autoimmunity” (Ramot University Authority for Applied Research & …, priority 1999, published 2003).

System: E-selectin-IgG chimera
Settings: 5 mM EDTA; shear stress 1 dyn/cm^2
Procedure: Cells (10^6/ml) were perfused at room temperature through the chamber at a shear stress of 1 dyn/cm^2 in binding medium alone or in the presence of 5 mM EDTA (Erg+EDTA). The number of cells which accumulated and maintained rolling at the end of 1 min of perfusion in two microscopic fields was determined as described in materials and methods. […] After 1 min perfusion, adherent cells were subjected to an abrupt 5-fold increase of shear stress and the number of cells that remained bound for at least 5 sec after the increase of shear was determined. The mean number +/− range of cells accumulated at 1 dyn/cm^2 and of accumulated cells remaining stably bound at 5 dyn/cm^2 on two fields of view are shown for the E48^lo and E48^hi cells. […] Data are representative of four independent experiments.
Cultured IUC cells grown as monolayers were harvested by a 10 min incubation with H/H medium (Hanks Balanced Salt Solution, HBSS (Sigma Israel Chemicals Ltd., Rehovot, Israel), containing BSA (2 mg/ml, fraction V, Sigma) and 10 mM HEPES, pH 7.4), supplemented with 5 mM EDTA at 37 Washed cells were resuspended in the same medium at a concentration of 1×10^7 cells/ml and kept at room temperature until use. Cells were diluted 20 fold into binding medium (H/H supplemented with 2 mM Ca^2+) and immediately perfused through the flow chamber. […]

For `O=C(O)CN(CCN(CC(=O)O)CC(=O)O)CC(=O)O` [EDTA], which “adhesive interactions of E48^hi cells with E-selectin coated substrate” value is on record?
Its value is “eliminated”.
